Laboratory results reported in patent publication US20250268870A1, “SMALL MOLECULE INDUCERS OF CARDIOMYOCYTES TO IMPROVE CARDIAC STRUCTURE AND FUNCTION” (UNIVERSITY OF MARYLAND, BALTIMORE, priority 2022, published 2025).

Tests used:
[1] = tested on: RTTN; assay: Knockdown of RTTN in zebrafish embryos: incidence of pericardial edema; format: in vivo; conditions: zebrafish embryos at 48 hours post-fertilization; Vehicle=8.4%
Procedure: Single mating pairs were bred overnight, and embryos were kept at 28.5° C., consistent with standard practices. Injections were performed using an Eppendorf™ FemtoJet 4i microinjector. Needles were pulled using a Sutter Instrument Co. Flaming/Brown Micropipette Puller Model P-97 with filaments from World Precision Instruments (Item #TW100F-4) (heat=90, pull=30, and velocity=7). The translational blocking morpholino oligonucleotide 5′-[…]-3′ (SEQ ID NO: 41) was purchased from GeneTools™. mRNA was generated from pcDNA-dCas9 (Addgene™) using the mMESSAGE mMACHINE T7 ULTRA Transcription Kit from Invitrogen™. Alt-R CRISPR-Cas9 sgRNA, sgRNA #1: 5′-[…]-3 (SEQ ID NO:42) and sgRNA #2: 5′-[…]-3′ (SEQ ID NO:43) were purchased from Integrated DNA Technologies. Wild-type NHGRI embryos were injected at the 1-2 cell stage with MO (6 ng) or dCas9 mRNA (1 ng) with or without the CRISPRi sgRNA (0.5 ng). At 8 hours post fertilization (hpf), E3 water was replaced with 0.003% 1-phenyl-2-thiourea (PTU) in E3, and the embryos remained in PTU until they were phenotyped for cardiac edema, and heart morphology at 48 hpf.

[2] = tested on: iDCM-CMs; assay: PCNT / MTOC localization (centriolar, split, perinuclear) in C19-treated iDCM-CMs, quantitated by a blinded observer; format: cell-based, human; conditions: for initiation of the perinuclear MTOC: iDCM-CMs (cDCM-CMs) treated with C19
[3] = tested on: iDCM-CMs; assay: Sarcomere formation in C19-treated iDCM-CMs (confocal imaging); format: cell-based, human; conditions: C19-treated iDCM-CMs vs untreated iDCM-CMs
[4] = tested on: iDCM-CMs; assay: Cell shortening (contractility) on Matrigel mattress, edge detection; format: cell-based, human
[5] = tested on: CMs; conditions: previously shown; cited from earlier work

Compound	embryos with large pericardial edema [1] [%]	initiation of the perinuclear MTOC [2]	initiation of the perinuclear MTOC ([2]; listed as C192)	PCNT perinuclear, % of CMs ([2]; iDCM-CMs + 10 μM C19 for 48 hours from D30, D32 CMs, control-CMs 23.1%, untreated iDCM-CMs 7.6%, p=0.0082) [%]	sarcomere formation [3]	cell shortening versus healthy control-CMs ([4]; D40 C19-treated iDCM-CMs vs control-CMs, p=0.682 (NS))	contractility (% cell shortening) ([4]; D40 C19-treated iDCM-CMs vs untreated iDCM-CMs, p=0.001)	centrosome reduction in CMs [5]
MO: translational blocking morpholino oligonucleotide 5′-TCTTTATGAGTGACGATAACTCCAT-3′ (SEQ ID NO: 41) against zebrafish RTTN (all phosphorodiamidate morpholino (PMO))	45.6							
OCCCCOc1nsnc1-c1ccc(Cl)c(Cl)c1 [C19]		improved initiation of the perinuclear MTOC	restored initiation of the perinuclear MTOC	23.6	improved sarcomere formation	comparable levels of cell shortening	significantly improved	induce centrosome reduction
